Source: US12521438B2, “SMARCA degraders and uses thereof” (Kymera Therapeutics, Inc., priority 2019, dated 2026)

Key:
SMARCA2 = SMARCA2 (Homo sapiens, UniProt P51531); experiment: MSD SMARCA2 degradation in A549 cell line; format: cell-based; parameters: endogenous in cells; host or cells: A549; settings: A549 cells, 24 hours; for DC50: read-out: SMARCA2 MSD A549 degradation 24h: Average external-Abs DC50
Description: Example 9. MSD SMARCA2 Degradation in A549 Cell Line
Cells were seeded into 96-well plates (A549 cells: 2×10^4 cells/well/100 ul media) abd incubated overnight. The next day, 200 nl compound were added into the intermediate plate with Echo (Labcyte 550) from source plate containing a 3-fold serial dilution from top concentration of 1 mM. The culture medium was changed with 80 ul of fresh medium and 80 ul of 2× compound solution was added into the well to make a final concentration of 1000 nM, 333.3 nM, 111.1 nM, 37.04 nM, 12.35 nM, 4.115 nM, 1.372 nM, 0.457 nM, 0.152 nM and 0 nM (DMSO). The wells were mixed and then incubated for 24 hours. The media was aspirated from the cultures and 60 ul pre-chilled PIPA lysis buffer (Boston BioProducts BP-115D) with protease/phosphatase inhibitor (Roche 05892791001/Roche 04906837001) was added into the well to lyze the cells for 20 minutes at 4° C. The MSD plate (L15XA) was coated with 40 ul cell lysate and incubated at 4° C. overnight. The next day, the plate was washed three times with TBST (CST #9997S), 150 ul/well. The MSD plates was blocked with 150 ul blocking buffer per well and shaked for 1 hr at RT, 600 rpm. The blocking buffer was 3% Blocker A (MSD, R93BA-4) in TBST. The MSD plate was washed three times with 150 ul/well of TBST and 25 ul/well of detection antibody (Rabbit anti-SMARCA2/BRM antibody, 100 μg/ml, ab223735) was added at final concentration of 1 ug/ml diluted in 1% Blocking buffer and shaken for 1 hour at RT, 600 rpm. The MSD plate was washed three times with 150 ul/well of TBST and 25 ul/well of SULFO-TAG anti-rabbit antibody (MSD, R32AB-1) was added at final concentration of 1 ug/ml diluted in 1% Blocking buffer and shaken for 1 hour at RT, 600 rpm. The MSD plate was washed three times with 150 ul/well of TBST and 150 ul/well of 2×MSD reading buffer diluted from 4× (MSD, R92TC-2) with water was added. Lastly, the MSD instrument was read.

SMARCA4 = target: T1, SMARCA4 (Homo sapiens, UniProt P51532); experiment: SMARCA4 Western blot MV4-11 degradation; format: cell-based; settings: MV4-11 cells, 24 hours; for Dmax: read-out: SMARCA4 WB MV411 degradation 24h: Average Dmax %; for DC50: read-out: SMARCA4 WB MV411 degradation 24h: Average external-Abs DC50
T1 construct: endogenous in cells; host or cells: MV4-11
T1 sequence (P51532 whole entry): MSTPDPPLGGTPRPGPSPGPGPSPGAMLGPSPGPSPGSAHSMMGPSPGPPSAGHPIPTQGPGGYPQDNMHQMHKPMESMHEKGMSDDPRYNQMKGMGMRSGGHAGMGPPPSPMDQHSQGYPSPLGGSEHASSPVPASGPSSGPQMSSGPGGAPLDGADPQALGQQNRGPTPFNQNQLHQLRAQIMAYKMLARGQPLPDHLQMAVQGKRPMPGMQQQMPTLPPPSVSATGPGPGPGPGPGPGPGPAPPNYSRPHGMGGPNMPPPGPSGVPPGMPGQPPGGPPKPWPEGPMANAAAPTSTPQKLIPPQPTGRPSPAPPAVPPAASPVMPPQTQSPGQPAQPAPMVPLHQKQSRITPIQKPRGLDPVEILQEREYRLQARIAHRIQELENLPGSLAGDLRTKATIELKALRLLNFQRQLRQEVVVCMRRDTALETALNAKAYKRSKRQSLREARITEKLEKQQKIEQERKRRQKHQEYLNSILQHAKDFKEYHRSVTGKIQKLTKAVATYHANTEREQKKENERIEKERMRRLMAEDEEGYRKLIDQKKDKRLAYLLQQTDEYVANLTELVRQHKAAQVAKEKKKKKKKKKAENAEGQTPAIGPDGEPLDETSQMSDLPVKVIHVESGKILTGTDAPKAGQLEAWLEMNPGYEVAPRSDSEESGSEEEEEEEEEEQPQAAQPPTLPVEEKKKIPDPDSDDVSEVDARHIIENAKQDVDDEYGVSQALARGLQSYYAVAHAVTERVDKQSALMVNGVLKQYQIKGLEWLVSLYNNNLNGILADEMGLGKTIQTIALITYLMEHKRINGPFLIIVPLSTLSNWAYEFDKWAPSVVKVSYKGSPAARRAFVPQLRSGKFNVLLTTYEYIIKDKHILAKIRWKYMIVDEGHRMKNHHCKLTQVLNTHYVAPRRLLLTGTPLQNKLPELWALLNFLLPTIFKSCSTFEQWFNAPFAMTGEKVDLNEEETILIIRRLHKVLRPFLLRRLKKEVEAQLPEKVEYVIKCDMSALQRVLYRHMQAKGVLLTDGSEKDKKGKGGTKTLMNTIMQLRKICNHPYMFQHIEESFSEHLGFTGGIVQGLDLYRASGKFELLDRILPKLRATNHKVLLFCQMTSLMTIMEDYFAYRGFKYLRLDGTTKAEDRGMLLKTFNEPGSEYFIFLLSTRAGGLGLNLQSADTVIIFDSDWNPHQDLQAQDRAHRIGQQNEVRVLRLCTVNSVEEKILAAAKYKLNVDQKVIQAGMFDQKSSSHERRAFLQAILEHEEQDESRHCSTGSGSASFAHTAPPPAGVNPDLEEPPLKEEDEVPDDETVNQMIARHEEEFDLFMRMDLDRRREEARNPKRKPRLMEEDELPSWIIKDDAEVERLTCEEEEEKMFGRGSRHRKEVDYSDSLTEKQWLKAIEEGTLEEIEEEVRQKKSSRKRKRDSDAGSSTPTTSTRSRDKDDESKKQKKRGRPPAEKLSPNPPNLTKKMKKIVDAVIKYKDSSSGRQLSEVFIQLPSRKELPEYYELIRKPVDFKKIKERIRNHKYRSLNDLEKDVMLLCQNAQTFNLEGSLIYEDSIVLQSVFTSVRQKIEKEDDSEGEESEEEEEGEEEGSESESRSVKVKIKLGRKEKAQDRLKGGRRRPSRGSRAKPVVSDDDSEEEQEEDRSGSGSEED
Description: Example 10. SMARCA2 and SMARCA 4 Western Blot MV4-11 Degradation
Cells were seeded into 6-well plates (MV4-11: 4×10^6 cells/well/1 ml) and 1 ml of 2× compound solution was added into the well to make the final concentration and the plates were mixed well and incubated for 24 hours (No cytotoxicity was observed). The cell were collected with media and spun at 3000 rpm for 5 minutes. The supernatant was aspirated and the well and the cells were washed with cold PBS once and combined for centrifugation again; the supernatant aspirated again. 200 ul pre-chilled RIPAlysis buffer (Boston BioProducts BP-115D) with protease/phosphatase inhibitor (Roche 05892791001/Roche 04906837001) was directly added into the tube to lyze the cells for 20 minutes on ice. The cell lysate were collected into EP tubes and spun at 13000 rpm for 20 minutes and 72 ul supernatant was transferred to a fresh EP tube containing 18 ul of 5× loading buffer (Beyotime Bio P0015) to make the loading samples. The samples were heated to 100° C. for 10 minutes and cooled to RT and microcentrifuged. 20 ul of samples were loaded onto SDS-PAGE gel (Novex, WG1402BOX) and the gel was run at 80 V for 20 minutes and 120 V for 1.5 hours. The samples were electrotransfer to a NC membrane using wet-transfer method with 250 mA for 2.5 hours. The membrane was blocked with LICOR blocking buffer (LI-COR, 927-50000) for 1 hour. The membrane was washed three times with TBST (CST #9997S), 5 minutes each. Incubation was performed with primary antibody prepared in blocking buffer with 0.1% Tween-20 (Solarbio, P8220) at 4° C. overnight (Anti-SMARCA2/BRM antibody (ab15597) 1:500; Anti-BRG1 antibody [EPR3912] (ab108318) 1:1000; Rabbit anti-Baf180 antibody [EPR15860] (Abcam,ab196022) 1:1000; mouse anti-beta-Actin (8H10D10) (CST #3700) 1:10000). The membrane was washed three times with TBST, 5 minutes each. Incubation with secondary antibody was performed for 1 hour at RT (anti-rabbit IgG (Licor, 926-32211) 1:5000; anti-mouse IgG (LI-COR, 926-68070) 1:5000). The membrane was washed three times with 5 minutes each and lastly the LiCOR was read.

Chain of SMARCA2 (P51531 whole entry): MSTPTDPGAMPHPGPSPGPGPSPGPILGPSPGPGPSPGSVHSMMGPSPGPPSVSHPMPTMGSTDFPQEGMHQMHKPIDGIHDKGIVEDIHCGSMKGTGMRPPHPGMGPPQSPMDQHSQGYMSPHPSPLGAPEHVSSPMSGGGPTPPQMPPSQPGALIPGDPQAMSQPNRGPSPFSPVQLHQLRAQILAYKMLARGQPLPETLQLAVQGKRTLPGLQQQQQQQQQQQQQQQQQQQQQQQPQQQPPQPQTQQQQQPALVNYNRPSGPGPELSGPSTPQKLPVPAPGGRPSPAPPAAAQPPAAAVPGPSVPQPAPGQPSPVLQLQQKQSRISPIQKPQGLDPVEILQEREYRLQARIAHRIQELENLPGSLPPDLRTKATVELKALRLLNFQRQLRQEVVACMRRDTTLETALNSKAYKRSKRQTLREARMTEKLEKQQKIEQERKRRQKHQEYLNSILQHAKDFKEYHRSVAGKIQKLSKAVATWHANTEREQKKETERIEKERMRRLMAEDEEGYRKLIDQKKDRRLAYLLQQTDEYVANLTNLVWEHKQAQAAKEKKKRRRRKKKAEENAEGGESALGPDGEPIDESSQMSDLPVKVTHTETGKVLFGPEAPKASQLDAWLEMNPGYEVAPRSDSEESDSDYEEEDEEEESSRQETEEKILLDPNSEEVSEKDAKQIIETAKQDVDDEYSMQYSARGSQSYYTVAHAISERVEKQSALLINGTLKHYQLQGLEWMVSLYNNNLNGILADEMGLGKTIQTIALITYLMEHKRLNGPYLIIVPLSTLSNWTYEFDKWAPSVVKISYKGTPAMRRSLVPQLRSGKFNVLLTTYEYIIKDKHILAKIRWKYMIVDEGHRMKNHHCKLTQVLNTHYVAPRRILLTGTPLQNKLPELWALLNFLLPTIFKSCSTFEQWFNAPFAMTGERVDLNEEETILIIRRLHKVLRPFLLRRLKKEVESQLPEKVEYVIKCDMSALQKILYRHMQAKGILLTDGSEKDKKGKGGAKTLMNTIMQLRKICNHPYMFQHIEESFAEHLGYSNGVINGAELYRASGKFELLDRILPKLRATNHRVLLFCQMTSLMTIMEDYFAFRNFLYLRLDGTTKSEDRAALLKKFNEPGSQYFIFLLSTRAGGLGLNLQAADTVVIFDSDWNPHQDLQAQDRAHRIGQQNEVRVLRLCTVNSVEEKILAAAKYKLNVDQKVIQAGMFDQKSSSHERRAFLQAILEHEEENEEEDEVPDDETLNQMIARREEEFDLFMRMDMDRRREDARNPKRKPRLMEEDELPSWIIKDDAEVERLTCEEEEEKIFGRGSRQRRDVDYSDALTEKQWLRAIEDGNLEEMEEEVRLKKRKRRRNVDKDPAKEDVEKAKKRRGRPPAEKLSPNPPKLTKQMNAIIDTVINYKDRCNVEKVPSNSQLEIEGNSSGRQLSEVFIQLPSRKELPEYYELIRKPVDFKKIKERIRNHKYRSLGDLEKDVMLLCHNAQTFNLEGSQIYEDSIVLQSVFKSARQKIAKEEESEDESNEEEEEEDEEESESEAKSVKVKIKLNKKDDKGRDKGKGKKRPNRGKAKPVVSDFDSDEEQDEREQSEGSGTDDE

## NCC#Cc1cnc(N2CCC(c3c[nH]c4nnc(-c5ccccc5O)cc34)CC2)nc1 [I-55, 2-(5-(1-(5-(3-aminoprop-1-yn-1-yl)pyrimidin-2-yl)piperidin-4-yl)-7H-pyrrolo[2,3-c]pyridazin-3-yl)phenol]
SMARCA2
  Dmax: < 50%
  DC50: > 1000 nM
SMARCA4
  Dmax: > 90%
  DC50: > 1000 nM

## Cc1ncsc1-c1ccc(CNC(=O)[C@@H]2C[C@@H](O)CN2C(=O)[C@@H](NC(=O)CN2CCC(c3cnc(N4CCC(c5c[nH]c6nnc(-c7ccccc7O)cc56)CC4)nc3)CC2)C(C)(C)C)cc1 [I-53]
SMARCA2
  Dmax: 70 to 90%
  DC50: 501 to 1000 nM
SMARCA4
  Dmax: 70 to 90%
  DC50: < 100 nM

## CN(CC#Cc1cnc(N2CCC(c3c[nH]c4nnc(-c5ccccc5O)cc34)CC2)nc1)CCCc1ccc2c(c1)n(C)c(=O)n2C1CCC(=O)NC1=O (centres unmarked) [I-3]
SMARCA2
  Dmax: < 50%
  DC50: > 1000 nM

## Cc1ncsc1-c1ccc(CNC(=O)[C@@H]2C[C@@H](O)CN2C(=O)[C@@H](NC(=O)CCCN(C)Cc2cnc(N3CCC(c4c[nH]c5nnc(-c6ccccc6O)cc45)CC3)nc2)C(C)(C)C)cc1 [I-51]
SMARCA2
  Dmax: < 50%
  DC50: > 1000 nM
SMARCA4
  Dmax: < 50%
  DC50: > 1000 nM

## Cc1ncsc1-c1ccc(CNC(=O)[C@@H]2C[C@@H](O)CN2C(=O)[C@@H](NC(=O)C2(F)CC2)C(C)(C)C)c(OCCCCCCN2CCC(c3c[nH]c4nnc(-c5ccccc5O)cc34)CC2)c1 [I-48]
SMARCA2
  Dmax: < 50%
  DC50: > 1000 nM
SMARCA4
  Dmax: < 50%
  DC50: 501 to 1000 nM

## Cc1ncsc1-c1ccc(CNC(=O)[C@@H]2C[C@@H](O)CN2C(=O)[C@@H](NC(=O)CCCCCN(C)Cc2cnc(N3CCC(c4c[nH]c5nnc(-c6ccccc6O)cc45)CC3)nc2)C(C)(C)C)cc1 [I-52, (2S,4R)-4-hydroxy-1-((S)-2-(6-(((2-(4-(3-(2-hydroxyphenyl)-7H-pyrrolo[2,3-c]pyridazin-5-yl)piperidin-1-yl)pyrimidin-5-yl)methyl)(methyl)amino)hexanamido)-3,3-dimethylbutanoyl)-N-(4-(4-methylthiazol-5-yl)benzyl)pyrrolidine-2-carboxamide]
SMARCA2
  Dmax: < 50%
  DC50: > 1000 nM
SMARCA4
  Dmax: 50 to 70%
  DC50: > 1000 nM

## Cc1ncsc1-c1ccc(CNC(=O)[C@@H]2C[C@@H](O)CN2C(=O)[C@@H](NC(=O)[C@H]2CC[C@@H](c3cnc(N4CCC(c5c[nH]c6nnc(-c7ccccc7O)cc56)CC4)nc3)CC2)C(C)(C)C)cc1 [I-45, (2S,4R)-4-hydroxy-1-((S)-2-((1s,4R)-4-(2-(4-(3-(2-hydroxyphenyl)-7H-pyrrolo[2,3-c]pyridazin-5-yl)piperidin-1-yl)pyrimidin-5-yl)cyclohexanecarboxamido)-3,3-dimethylbutanoyl)-N-(4-(4-methylthiazol-5-yl)benzyl)pyrrolidine-2-carboxamide]
SMARCA2
  Dmax: 70 to 90%
  DC50: 501 to 1000 nM
SMARCA4
  Dmax: > 90%
  DC50: < 100 nM

## Cc1ncsc1-c1ccc(CNC(=O)[C@@H]2C[C@@H](O)CN2C(=O)[C@@H](NC(=O)CN(C)Cc2cnc(N3CCC(c4c[nH]c5nnc(-c6ccccc6O)cc45)CC3)nc2)C(C)(C)C)cc1 [I-50]
SMARCA2
  Dmax: < 50%
  DC50: > 1000 nM
SMARCA4
  Dmax: < 50%
  DC50: > 1000 nM

## CN(CCCc1cnc(N2CCC(c3c[nH]c4nnc(-c5ccccc5O)cc34)CC2)nc1)CCCc1ccc2c(c1)n(C)c(=O)n2C1CCC(=O)NC1=O (centres unmarked) [I-2]
SMARCA2
  Dmax: < 50%
  DC50: > 1000 nM

## Cc1ncsc1-c1ccc(CNC(=O)[C@@H]2C[C@@H](O)CN2C(=O)[C@@H](NC(=O)CN2CCC(c3cc(N4CCC(c5c[nH]c6nnc(-c7ccccc7O)cc56)CC4)ncn3)CC2)C(C)(C)C)cc1 [I-54, (2S,4R)-4-hydroxy-1-((S)-2-(2-(4-(6-(4-(3-(2-hydroxyphenyl)-7H-pyrrolo[2,3-c]pyridazin-5-yl)piperidin-1-yl)pyrimidin-4-yl)piperidin-1-yl)acetamido)-3,3-dimethylbutanoyl)-N-(4-(4-methylthiazol-5-yl)benzyl)pyrrolidine-2-carboxamide]
SMARCA2
  Dmax: < 50%
  DC50: > 1000 nM
SMARCA4
  Dmax: > 90%
  DC50: > 1000 nM

## Cc1ncsc1-c1ccc(CNC(=O)[C@@H]2C[C@@H](O)CN2C(=O)[C@@H](NC(=O)C2(F)CC2)C(C)(C)C)c(OCCCCCCCCN2CCC(c3c[nH]c4nnc(-c5ccccc5O)cc34)CC2)c1 [I-49]
SMARCA2
  Dmax: < 50%
  DC50: > 1000 nM
SMARCA4
  Dmax: 70 to 90%
  DC50: > 1000 nM

## Cc1ncsc1-c1ccc(CNC(=O)[C@@H]2C[C@@H](O)CN2C(=O)[C@@H](NC(=O)C2(F)CC2)C(C)(C)C)c(OCCN2CCC(c3c[nH]c4nnc(-c5ccccc5O)cc34)CC2)c1 [I-47, (2S,4R)-1-((S)-2-(1-fluorocyclopropanecarboxamido)-3,3-dimethylbutanoyl)-4-hydroxy-N-(2-(2-(4-(3-(2-hydroxyphenyl)-7H-pyrrolo[2,3-c]pyridazin-5-yl)piperidin-1-yl)ethoxy)-4-(4-methylthiazol-5-yl)benzyl)pyrrolidine-2-carboxamide]
SMARCA2
  Dmax: < 50%
  DC50: > 1000 nM
SMARCA4
  Dmax: 70 to 90%
  DC50: > 1000 nM
